Source: patent publication US12077503B2, “Substituted cyclic amides and their use as herbicides” (FMC CORPORATION, priority 2015, dated 2024)

Key:
Format in all cases: in vivo
[1] = tested on: ryegrass, Italian (Italian ryegrass, Lolium multiflorum); assay: Test A preemergence; conditions: Lolium multiflorum, pre-emergence, 240 h, 0 to 100 scale (0 no effect, 100 complete control), read-out: Plant response rating, Ryegrass, Italian; for pest or weed control at 125 g/ha: Preemergence, 125 g ai/ha
Summary of the method: (§1)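 Preemergence directed soil spray on seeded pots, or postemergence application to plants 2–10 cm, one- to two-leaf. Solvent mixture non-phytotoxic, with surfactant. Scored ~10 d later, visually, 0–100 vs untreated.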

[2] = tested on: Kochia (Kochia scoparia); assay: Test A preemergence; conditions: Bassia scoparia, pre-emergence, 240 h; for pest or weed control at 500 g/ha: 500 g ai/ha, preemergence; for pest or weed control at 125 g/ha: Preemergence, 125 g ai/ha
Summary of the method: as §1

[3] = tested on: giant foxtail (Setaria faberii); assay: Test A preemergence; conditions: Setaria faberi, pre-emergence, 240 h; for pest or weed control at 500 g/ha: 500 g ai/ha, preemergence; for pest or weed control at 125 g/ha: Preemergence, 125 g ai/ha
Summary of the method: as §1

[4] = tested on: pigweed (Amaranthus retroflexus); assay: Test A preemergence; conditions: Amaranthus retroflexus, pre-emergence, 240 h; for pest or weed control at 500 g/ha: 500 g ai/ha, preemergence; for pest or weed control at 125 g/ha: Preemergence, 125 g ai/ha
[5] = tested on: barnyardgrass (Echinochloa crus-galli); assay: Test A preemergence; conditions: Echinochloa crus-galli, pre-emergence, 240 h; for pest or weed control at 500 g/ha: 500 g ai/ha, preemergence; for pest or weed control at 125 g/ha: Preemergence, 125 g ai/ha
Summary of the method: as §1

[6] = tested on: ragweed (common ragweed, Ambrosia elatior); assay: Test A preemergence; conditions: Ambrosia artemisiifolia, pre-emergence, 240 h; for pest or weed control at 500 g/ha: 500 g ai/ha, preemergence; for pest or weed control at 125 g/ha: Preemergence, 125 g ai/ha
Summary of the method: as §1

[7] = tested on: ryegrass, Italian (Italian ryegrass, Lolium multiflorum); assay: Test A postemergence; conditions: Lolium multiflorum, post-emergence, 240 h, Postemergence; for pest or weed control at 125 g/ha: 125 g ai/ha, visual rating about 10 d after treatment, read-out: Ryegrass, Italian plant response rating (0 to 100 scale); for pest or weed control at 500 g/ha: 500 g ai/ha, visual injury, 0 to 100 scale (0 no effect, 100 complete control), approx. 10 d, read-out: Plant response rating, Ryegrass, Italian
Summary of the method: as §1

[8] = tested on: Kochia (Kochia scoparia); assay: Test A postemergence; conditions: Bassia scoparia, post-emergence, 240 h, Postemergence; for pest or weed control at 125 g/ha: 125 g ai/ha, visual rating about 10 d after treatment, read-out: Kochia plant response rating (0 to 100 scale); for pest or weed control at 500 g/ha: 500 g ai/ha, visual injury, 0 to 100 scale (0 no effect, 100 complete control), approx. 10 d, read-out: Plant response rating, Kochia
Summary of the method: as §1

[9] = tested on: giant foxtail (Setaria faberii); assay: Test A postemergence; conditions: Setaria faberi, post-emergence, 240 h, Postemergence; for pest or weed control at 125 g/ha: 125 g ai/ha, visual rating about 10 d after treatment, read-out: Foxtail, Giant plant response rating (0 to 100 scale); for pest or weed control at 500 g/ha: 500 g ai/ha, visual injury, 0 to 100 scale (0 no effect, 100 complete control), approx. 10 d, read-out: Plant response rating, Foxtail, Giant
Summary of the method: as §1

[10] = tested on: pigweed (Amaranthus retroflexus); assay: Test A postemergence; conditions: Amaranthus retroflexus, post-emergence, 240 h, Postemergence; for pest or weed control at 125 g/ha: 125 g ai/ha, visual rating about 10 d after treatment, read-out: Pigweed plant response rating (0 to 100 scale); for pest or weed control at 500 g/ha: 500 g ai/ha, visual injury, 0 to 100 scale (0 no effect, 100 complete control), approx. 10 d, read-out: Plant response rating, Pigweed
Summary of the method: as §1

[11] = tested on: barnyardgrass (Echinochloa crus-galli); assay: Test A postemergence; conditions: Echinochloa crus-galli, post-emergence, 240 h, Postemergence; for pest or weed control at 125 g/ha: 125 g ai/ha, visual rating about 10 d after treatment, read-out: Barnyardgrass plant response rating (0 to 100 scale, 0 no effect, 100 complete control); for pest or weed control at 500 g/ha: 500 g ai/ha, visual injury, 0 to 100 scale (0 no effect, 100 complete control), approx. 10 d, read-out: Plant response rating, Barnyardgrass
Summary of the method: as §1

[12] = tested on: wheat (Triticum aestivum); assay: Test A postemergence; conditions: Triticum aestivum, post-emergence, 240 h, Postemergence; for plant injury at 125 g/ha: 125 g ai/ha, visual rating about 10 d after treatment, read-out: Wheat plant response rating (0 to 100 scale); for plant injury at 500 g/ha: 500 g ai/ha, visual injury, 0 to 100 scale (0 no effect, 100 complete control), approx. 10 d, read-out: Plant response rating, Wheat
Summary of the method: as §1

[13] = tested on: ragweed (common ragweed, Ambrosia elatior); assay: Test A postemergence; conditions: Ambrosia artemisiifolia, post-emergence, 240 h, Postemergence; for pest or weed control at 125 g/ha: 125 g ai/ha, visual rating about 10 d after treatment, read-out: Ragweed plant response rating (0 to 100 scale); for pest or weed control at 500 g/ha: 500 g ai/ha, visual injury, 0 to 100 scale (0 no effect, 100 complete control), approx. 10 d, read-out: Plant response rating, Ragweed
Summary of the method: as §1

[14] = tested on: corn (Zea mays); assay: Test A postemergence; conditions: Zea mays, post-emergence, 240 h, Postemergence; for plant injury at 125 g/ha: 125 g ai/ha, visual rating about 10 d after treatment, read-out: Corn plant response rating (0 to 100 scale); for Corn plant response rating (crop injury, 0 = no effect, 100 = complete kill) at 500 g/ha: 500 g ai/ha, visual injury, 0 to 100 scale (0 no effect, 100 complete control), approx. 10 d
Summary of the method: as §1

[15] = tested on: Galium (catchweed bedstraw, Galium aparine); assay: Test A postemergence; conditions: Galium, post-emergence, 240 h, Postemergence; for pest or weed control at 125 g/ha: 125 g ai/ha, visual rating about 10 d after treatment, read-out: Galium plant response rating (0 to 100 scale); for pest or weed control at 500 g/ha: 500 g ai/ha, visual injury, 0 to 100 scale (0 no effect, 100 complete control), approx. 10 d, read-out: Plant response rating, Galium
Summary of the method: as §1

[16] = 0 to 100 scale (0 no effect, 100 complete control), read-out: Plant response rating, Kochia
[17] = 0 to 100 scale (0 no effect, 100 complete control), read-out: Plant response rating, Foxtail, Giant
[18] = 0 to 100 scale (0 no effect, 100 complete control), read-out: Plant response rating, Pigweed
[19] = 0 to 100 scale (0 no effect, 100 complete control), read-out: Plant response rating, Barnyardgrass
[20] = 0 to 100 scale (0 no effect, 100 complete control), read-out: Plant response rating, Ragweed

Row | SMILES | pest or weed control at 125 g/ha [1] [%] | pest or weed control at 125 g/ha [2, 16] [%] | pest or weed control at 125 g/ha [3, 17] [%] | pest or weed control at 125 g/ha [4, 18] [%] | pest or weed control at 125 g/ha [5, 19] [%] | pest or weed control at 125 g/ha [6, 20] [%] | pest or weed control at 125 g/ha [7] [%] | pest or weed control at 500 g/ha [7] [%] | pest or weed control at 125 g/ha [8] [%] | pest or weed control at 500 g/ha [8] [%] | pest or weed control at 125 g/ha [9] [%] | pest or weed control at 500 g/ha [9] [%] | pest or weed control at 125 g/ha [10] [%] | pest or weed control at 500 g/ha [10] [%] | pest or weed control at 125 g/ha [11] [%] | pest or weed control at 500 g/ha [11] [%] | plant injury at 125 g/ha [12] [%] | plant injury at 500 g/ha [12] [%] | pest or weed control at 125 g/ha [13] [%] | pest or weed control at 500 g/ha [13] [%] | also measured
1 | Cc1c(F)ccc([C@H]2CNC(=O)[C@@H]2C(=O)Nc2ccc(F)cc2F)c1F [Compound 1328] | 0 | 30 | 50 | 0 | 70 | 0 | 0 | 30 | 0 | 0 | 0 | 40 | 0 | 0 | 60 | 90 | 0 | 0 | 0 | 0 | pest or weed control at 500 g/ha ([1]; 500 g ai/ha, preemergence): 30%; pest or weed control at 500 g/ha [2, 16]: 50%; pest or weed control at 500 g/ha [3, 17]: 90%; pest or weed control at 500 g/ha [4, 18]: 0%; pest or weed control at 500 g/ha [5, 19]: 90%; pest or weed control at 500 g/ha [6, 20]: 0%; plant injury at 125 g/ha [14]: 0%; Corn plant response rating (crop injury, 0 = no effect, 100 = complete kill) at 500 g/ha [14]: 0%; pest or weed control at 125 g/ha [15]: 0%; pest or weed control at 500 g/ha [15]: 30%
2 | CN1C[C@H](c2cccc(C(C)(F)F)c2)[C@@H](C(=O)Nc2ccccc2S(C)(=O)=O)C1=O [Compound 1318] | 40 | 70 | 90 | 70 | 90 | 0 | 20 | 40 | 0 | 40 | 90 | 90 | 30 | 40 | 80 | 90 | 50 | 80 | 10 | 60 | pest or weed control at 500 g/ha ([2]; 0 to 100 scale where 0 is no effect and 100 is complete control, read-out: Kochia plant response rating): 80%; pest or weed control at 500 g/ha ([3]; 0 to 100 scale where 0 is no effect and 100 is complete control, read-out: Foxtail, Giant plant response rating): 90%; pest or weed control at 500 g/ha ([4]; 0 to 100 scale where 0 is no effect and 100 is complete control, read-out: Pigweed plant response rating): 80%; pest or weed control at 500 g/ha ([5]; 0 to 100 scale where 0 is no effect and 100 is complete control, read-out: Barnyardgrass plant response rating): 90%; pest or weed control at 500 g/ha ([6]; 0 to 100 scale where 0 is no effect and 100 is complete control, read-out: Ragweed plant response rating): 90%; plant injury at 125 g/ha [14]: 60%; Corn plant response rating (crop injury, 0 = no effect, 100 = complete kill) at 500 g/ha [14]: 80%; pest or weed control at 125 g/ha [15]: 60%; pest or weed control at 500 g/ha [15]: 60%
